According to PubChem BioAssay AID1963421 (Molecular Pharmacology Branch, DTP, NCI, 2024):
“And” between values parts separate entries of the source, which are not always exact repeats. Identical values can stand only once.

Test system: 519858-162-T-J1-PDC complex spheroid growth, % test/control
Assay: Anticancer human tumor 519858-162-T-J1-PDC patient-derived colon adenocarcinoma cell line growth inhibition [Asc]
Settings: for viability, T/C: stronger effect = lower value
Procedure, shortened: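 Tumor cells were grown as complex spheroids with human endothelial cells (HUVEC) and human mesenchymal stem cells as stroma. Agents were tested alone and in combination, in half-log steps down from the clinical Cmax, or from 10 microM where Cmax was unknown.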

[1] = curve of first compound, second compound 0.0316 µM
[2] = curve of first compound, second compound 0.1 µM
[3] = curve of first compound, second compound 0.316 µM
[4] = curve of first compound, second compound 1 µM
[5] = second compound 0.0316 µM, first compound 0.0316 µM
[6] = second compound 0.0316 µM, first compound 0.1 µM
[7] = second compound 0.0316 µM, first compound 0.316 µM
[8] = second compound 0.0316 µM, first compound 1 µM
[9] = second compound 0.0316 µM, first compound 3.16 µM
[10] = second compound 0.0316 µM, first compound 10 µM
[11] = second compound 0.1 µM, first compound 0.0316 µM
[12] = second compound 0.1 µM, first compound 0.1 µM
[13] = second compound 0.1 µM, first compound 0.316 µM
[14] = second compound 0.1 µM, first compound 1 µM
[15] = second compound 0.1 µM, first compound 3.16 µM
[16] = second compound 0.1 µM, first compound 10 µM
[17] = second compound 0.316 µM, first compound 0.0316 µM
[18] = second compound 0.316 µM, first compound 0.1 µM
[19] = second compound 0.316 µM, first compound 0.316 µM
[20] = second compound 0.316 µM, first compound 1 µM
[21] = second compound 0.316 µM, first compound 3.16 µM
[22] = second compound 0.316 µM, first compound 10 µM
[23] = second compound 1 µM, first compound 0.0316 µM
[24] = second compound 1 µM, first compound 0.1 µM
[25] = second compound 1 µM, first compound 0.316 µM
[26] = second compound 1 µM, first compound 1 µM
[27] = second compound 1 µM, first compound 3.16 µM
[28] = second compound 1 µM, first compound 10 µM
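Also: seven day drug exposure begun three days after spheroid seeding.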
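For viability, T/C in this document: 100% = DMSO vehicle wells and lower values mean less viable spheroid.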

What does the source list for O=C(c1cc(Cc2n[nH]c(=O)c3ccccc23)ccc1F)N1CCN(C(=O)C2CC2)CC1 + Cc1c(S(C)(=O)=O)c(-c2cc(F)cc(N3CCN(c4ccc(NS(=O)(=O)c5ccc(NC(CCN6CCC(C(=O)OCCCP(=O)(O)O)CC6)CSc6ccccc6)c(S(=O)(=O)C(F)(F)F)c5)cc4)CC3)c2)c(-c2ccc(Cl)cc2)n1C(C)C?
IC50 [1]: > 10 µM; IC50 [2]: > 10 µM; IC50 [3]: > 10 µM; IC50 [4]: > 10 µM; IC50 (curve of first compound, second compound 3.16 µM): > 10 µM; IC50 (curve of first compound, second compound 10 µM): > 10 µM; viability, T/C [5]: 68.1%; viability, T/C [6]: 92.3%; viability, T/C [7]: 77.4%; viability, T/C [8]: 104%; viability, T/C [9]: 91.5%; viability, T/C [10]: 68.3%; viability, T/C [11]: 92.1%; viability, T/C [12]: 107%; viability, T/C [13]: 102%; viability, T/C [14]: 75.8%; viability, T/C [15]: 58.7%; viability, T/C [16]: 78.3%; viability, T/C [17]: 100%; viability, T/C [18]: 129%; viability, T/C [19]: 77.8%; viability, T/C [20]: 87.2%; viability, T/C [21]: 101%; viability, T/C [22]: 62.9%; viability, T/C [23]: 95.4%; viability, T/C [24]: 100%; viability, T/C [25]: 71.6%; viability, T/C [26]: 73.8%; viability, T/C [27]: 93.1%; viability, T/C [28]: 100%; viability, T/C (second compound 3.16 µM, first compound 0.0316 µM): 76.5%; viability, T/C (second compound 3.16 µM, first compound 0.1 µM): 94%; viability, T/C (second compound 3.16 µM, first compound 0.316 µM): 74.8%; viability, T/C (second compound 3.16 µM, first compound 1 µM): 84.1%; viability, T/C (second compound 3.16 µM, first compound 3.16 µM): 70.7%; viability, T/C (second compound 3.16 µM, first compound 10 µM): 86.6%; viability, T/C (second compound 10 µM, first compound 0.0316 µM): 71.6%; viability, T/C (second compound 10 µM, first compound 0.1 µM): 101%; viability, T/C (second compound 10 µM, first compound 0.316 µM): 58.2%; viability, T/C (second compound 10 µM, first compound 1 µM): 72.9%; viability, T/C (second compound 10 µM, first compound 3.16 µM): 65.2%; viability, T/C (second compound 10 µM, first compound 10 µM): 57.6%

Which IC50 (curve of first compound, second compound 0.00316 µM) does the source give for C=C(F)C(=O)N1CCN(c2nc(OCC3CCCN3C)nc3c2CCN(c2cccc4cccc(Cl)c24)C3)CC1CC#N (stereo unspecified) + CNC(C)C(=O)NC1CN(S(=O)(=O)c2cccc(S(=O)(=O)N3CCC4CCC(C(=O)NC(c5ccccc5)c5ccccc5)N4C(=O)C(NC(=O)C(C)NC)C3)c2)CCC2CCC(C(=O)NC(c3ccccc3)c3ccccc3)N2C1=O here?
The IC50 was greater than 10 µM.

What about the IC50 (curve of first compound, second compound 0.01 µM) of the same compound?
Its IC50 is greater than 10 µM.

What about the IC50 [1] of the same compound?
The IC50 was greater than 10 µM.

And the IC50 [2]?
Its IC50 is greater than 10 µM.

What about the IC50 [3] of the same compound?
Its IC50 is greater than 10 µM.

What about the IC50 [4] of the same compound?
Its IC50 is greater than 10 µM.

And the viability, T/C (second compound 0.00316 µM, first compound 0.0316 µM)?
The viability, T/C was 102%.

And the viability, T/C (second compound 0.00316 µM, first compound 0.1 µM)?
Its viability, T/C is 86.8%.

What about the viability, T/C (second compound 0.00316 µM, first compound 0.316 µM) of the same compound?
Its viability, T/C is 102%.

And the viability, T/C (second compound 0.00316 µM, first compound 1 µM)?
Its viability, T/C is 92.7%.

And the viability, T/C (second compound 0.00316 µM, first compound 3.16 µM)?
The viability, T/C was 94.8%.

What about the viability, T/C (second compound 0.00316 µM, first compound 10 µM) of the same compound?
The viability, T/C was 113%.

What about the viability, T/C (second compound 0.01 µM, first compound 0.0316 µM) of the same compound?
Its viability, T/C is 104%.

And the viability, T/C (second compound 0.01 µM, first compound 0.1 µM)?
The viability, T/C was 83.7%.

What about the viability, T/C (second compound 0.01 µM, first compound 0.316 µM) of the same compound?
The viability, T/C was 91.2%.

And the viability, T/C (second compound 0.01 µM, first compound 1 µM)?
Its viability, T/C is 82%.

What about the viability, T/C (second compound 0.01 µM, first compound 3.16 µM) of the same compound?
The viability, T/C was 96.7%.

And the viability, T/C (second compound 0.01 µM, first compound 10 µM)?
The viability, T/C was 108%.

What about the viability, T/C [5] of the same compound?
Its viability, T/C is 94.7%.

And the viability, T/C [6]?
Its viability, T/C is 83.7%.

And the viability, T/C [7]?
Its viability, T/C is 86.3%.

And the viability, T/C [8]?
Its viability, T/C is 93.4%.

What about the viability, T/C [9] of the same compound?
Its viability, T/C is 95.7%.

What about the viability, T/C [10] of the same compound?
Its viability, T/C is 107%.

What about the viability, T/C [11] of the same compound?
The viability, T/C was 93.1%.

And the viability, T/C [12]?
The viability, T/C was 91.2%.

What about the viability, T/C [13] of the same compound?
The viability, T/C was 93.3%.

What about the viability, T/C [14] of the same compound?
Its viability, T/C is 89.2%.

What about the viability, T/C [15] of the same compound?
Its viability, T/C is 86.8%.

What about the viability, T/C [16] of the same compound?
Its viability, T/C is 116%.

What about the viability, T/C [17] of the same compound?
Its viability, T/C is 88.2%.

And the viability, T/C [18]?
Its viability, T/C is 96.9%.

And the viability, T/C [19]?
Its viability, T/C is 106%.

And the viability, T/C [20]?
Its viability, T/C is 92.9%.

What about the viability, T/C [21] of the same compound?
Its viability, T/C is 82.2%.

What about the viability, T/C [22] of the same compound?
The viability, T/C was 107%.

What about the viability, T/C [23] of the same compound?
The viability, T/C was 93.6%.

And the viability, T/C [24]?
The viability, T/C was 101%.

What about the viability, T/C [25] of the same compound?
Its viability, T/C is 103%.

What about the viability, T/C [26] of the same compound?
The viability, T/C was 92.6%.

And the viability, T/C [27]?
Its viability, T/C is 91.2%.

And the viability, T/C [28]?
The viability, T/C was 112%.

How did the viability, T/C (compound 0.00949 µM) turn out when Cc1nc(N2CCC3(CC2)COC(C)C3N)c(CO)nc1Sc1ccnc(N)c1Cl (stereo unspecified) was run?
The viability, T/C was 94.3% and 68.7% and 97.6%.

And the viability, T/C (compound 0.03 µM)?
Its viability, T/C is 86.9% and 76% and 58.9%.

What about the viability, T/C (compound 0.0949 µM) of the same compound?
The viability, T/C was 76.2% and 77.3% and 83.6%.

What about the viability, T/C (compound 0.3 µM) of the same compound?
Its viability, T/C is 76.3% and 77.2% and 97.4%.

And the viability, T/C (compound 0.949 µM)?
The viability, T/C was 76.3% and 78.3% and 53%.

What about the viability, T/C (compound 3 µM) of the same compound?
Its viability, T/C is 70.9% and 57.7% and 49.1%.

And the IC50 (curve of compound)?
Its IC50 is > 3 µM and 2.29 µM.
